Measurements reported in publication PMC9250534, “Synthesis and direct assay of large macrocycle diversities by combinatorial late-stage modification at picomole scale” (Nature Communications, 2022).

Target: MDM2 (Homo sapiens, UniProt Q00987)
Experiment: MDM2 binding screen: displacement of fluorescent p53 peptide probe FP53 (fluorescence polarization)
Settings: crude macrocycle reactions; for fraction fluorescent probe displaced, Screen: initial screen
In short: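 Single-point screen: one fluorescence anisotropy reading at 25 °C (485 nm excitation, 535 nm emission) per macrocycle. Crude macrocycle reactions, final 10 µM, were scored for displacing the fluorescent p53 peptide from human MDM2.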

Sequence of MDM2 (Q00987 whole entry): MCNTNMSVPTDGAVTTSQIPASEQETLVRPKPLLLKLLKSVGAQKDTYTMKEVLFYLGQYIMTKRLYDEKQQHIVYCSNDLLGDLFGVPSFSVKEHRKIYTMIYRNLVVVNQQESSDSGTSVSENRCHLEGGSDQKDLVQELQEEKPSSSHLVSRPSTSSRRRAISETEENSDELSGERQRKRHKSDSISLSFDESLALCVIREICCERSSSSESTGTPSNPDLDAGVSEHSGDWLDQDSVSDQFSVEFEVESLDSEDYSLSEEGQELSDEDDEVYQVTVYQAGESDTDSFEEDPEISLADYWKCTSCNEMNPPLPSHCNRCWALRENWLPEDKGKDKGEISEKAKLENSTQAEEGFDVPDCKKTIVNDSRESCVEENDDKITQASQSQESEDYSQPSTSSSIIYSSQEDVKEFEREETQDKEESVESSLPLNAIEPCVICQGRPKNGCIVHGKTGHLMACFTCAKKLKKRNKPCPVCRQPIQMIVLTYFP

SMILES | fraction fluorescent probe displaced, Screen (Acid 25) | fraction fluorescent probe displaced, Replicate (Acid 25) | fraction fluorescent probe displaced, Screen (Acid 91) | fraction fluorescent probe displaced, Replicate (Acid 91) | further results
O=C(NCC1NC(=O)C(Cc2c[nH]c3ccccc23)NC(=O)C2CCCN(C2)C(=O)CCSSCCNC1=O)c1ccc(Cl)cc1 (stereo not drawn) [X B4 W D3 Acid 25] | 0.09 | 0.22 | – | – | –
O=C(/C=C/c1ccccc1)NC[C@@H]1NC(=O)[C@H](Cc2c[nH]c3ccccc23)NC(=O)[C@H]2CCCN(C2)C(=O)CCSSCCNC1=O [X B4 W D3 Acid 91] | – | – | 0.16 | 0.09 | –
O=C(N[C@H]1C[C@H]2C(=O)NCCSSCCC(=O)N3CCC[C@@H](C3)C(=O)N[C@@H](Cc3c[nH]c4ccccc34)C(=O)N2C1)c1ccc(Cl)s1 [X B4 W D5 Acid 14] | – | – | – | – | fraction fluorescent probe displaced, Screen (Acid 14): 0.08; fraction fluorescent probe displaced, Replicate (Acid 14): -0.03
O=C(NC1CC2C(=O)NCCSSCCC(=O)N3CCCC(C3)C(=O)NC(Cc3c[nH]c4ccccc34)C(=O)N2C1)c1ccc(Cl)cc1 (stereo not drawn) [X B4 W D5 Acid 25] | 0.15 | 0.20 | – | – | –
O=C(C=Cc1ccccc1)NC1CC2C(=O)NCCSSCCC(=O)N3CCCC(C3)C(=O)NC(Cc3c[nH]c4ccccc34)C(=O)N2C1 (stereo not drawn) [X B4 W D5 Acid 91] | – | – | 0.0563 | 0.12 | –
O=C1N[C@@H](Cc2c[nH]c3ccccc23)C(=O)NC2(CCN(C(=O)c3ccc(Cl)s3)CC2)C(=O)NCCSSCCC(=O)N2CCC[C@H]1C2 [X B4 W D6 Acid 14] | – | – | – | – | fraction fluorescent probe displaced, Screen (Acid 14): 0.08; fraction fluorescent probe displaced, Replicate (Acid 14): 0.22
O=C1N[C@@H](Cc2c[nH]c3ccccc23)C(=O)NC2(CCN(C(=O)c3ccc(Cl)cc3)CC2)C(=O)NCCSSCCC(=O)N2CCC[C@H]1C2 [X B4 W D6 Acid 25] | 0.22 | 0.20 | – | – | –
O=C1NC(Cc2c[nH]c3ccccc23)C(=O)N2CCN(C(=O)c3ccc(Cl)s3)CC2C(=O)NCCSSCCC(=O)N2CCCC1C2 (stereo not drawn) [X B4 W D7 Acid 14] | – | – | – | – | fraction fluorescent probe displaced, Screen (Acid 14): 0.14; fraction fluorescent probe displaced, Replicate (Acid 14): 0.25
O=C1NC(Cc2c[nH]c3ccccc23)C(=O)N2CCN(C(=O)c3ccc(Cl)cc3)CC2C(=O)NCCSSCCC(=O)N2CCCC1C2 (stereo not drawn) [X B4 W D7 Acid 25] | 0.25 | 0.17 | – | – | –
O=C1CCSSCCNC(=O)C(Cc2ccccc2)NC(=O)C(CNC(=O)c2ccc(Cl)s2)NC(=O)c2cccc(c2)CN1 (stereo not drawn) [X B5 D3 F Acid 14] | – | – | – | – | fraction fluorescent probe displaced, Screen (Acid 14): -0.00483; fraction fluorescent probe displaced, Replicate (Acid 14): 0.12
O=C1CCSSCCNC(=O)[C@H](Cc2ccccc2)NC(=O)[C@H](CNC(=O)c2ccc(Cl)cc2)NC(=O)c2cccc(c2)CN1 [X B5 D3 F Acid 25] | 0.0244 | 0.10 | – | – | –
O=C(/C=C/c1ccccc1)NC[C@@H]1NC(=O)c2cccc(c2)CNC(=O)CCSSCCNC(=O)[C@H](Cc2ccccc2)NC1=O [X B5 D3 F Acid 91] | – | – | -0.05 | 0.0168 | –
O=C1CCSSCCNC(=O)[C@H](Cc2c[nH]c3ccccc23)NC(=O)[C@H](CNC(=O)c2ccc(Cl)cc2)NC(=O)c2cccc(c2)CN1 [X B5 D3 W Acid 25] | 0.25 | 0.30 | – | – | –
O=C(C=Cc1ccccc1)NCC1NC(=O)c2cccc(c2)CNC(=O)CCSSCCNC(=O)C(Cc2c[nH]c3ccccc23)NC1=O (stereo not drawn) [X B5 D3 W Acid 91] | – | – | 0.16 | 0.29 | –
O=C1CCSSCCNC(=O)C(Cc2ccccc2)NC(=O)C2CC(NC(=O)c3ccc(Cl)cc3)CN2C(=O)c2cccc(c2)CN1 (stereo not drawn) [X B5 D5 F Acid 25] | 0.13 | 0.05 | – | – | –
O=C(C=Cc1ccccc1)NC1CC2C(=O)NC(Cc3c[nH]c4ccccc34)C(=O)NCCSSCCC(=O)NCc3cccc(c3)C(=O)N2C1 (stereo not drawn) [X B5 D5 W Acid 91] | – | – | -0.13 | 0.0168 | –
O=C1CCSSCCNC(=O)C(Cc2ccccc2)NC(=O)C2(CCN(C(=O)c3ccc(Cl)s3)CC2)NC(=O)c2cccc(c2)CN1 (stereo not drawn) [X B5 D6 F Acid 14] | – | – | – | – | fraction fluorescent probe displaced, Screen (Acid 14): -0.0116; fraction fluorescent probe displaced, Replicate (Acid 14): 0.05
O=C1CCSSCCNC(=O)[C@H](Cc2ccccc2)NC(=O)C2(CCN(C(=O)c3ccc(Cl)cc3)CC2)NC(=O)c2cccc(c2)CN1 [X B5 D6 F Acid 25] | 0.0462 | 0.07 | – | – | –

SMILES | fraction fluorescent probe displaced, Screen (Acid 25) | fraction fluorescent probe displaced, Replicate (Acid 25) | fraction fluorescent probe displaced, Screen (Acid 91) | fraction fluorescent probe displaced, Replicate (Acid 91) | further results
O=C1CCSSCCNC(=O)C(Cc2ccccc2)NC(=O)C2(CCN(C(=O)C=Cc3ccccc3)CC2)NC(=O)c2cccc(c2)CN1 (stereo not drawn) [X B5 D6 F Acid 91] | – | – | -0.10 | -0.08 | –
O=C1CCSSCCNC(=O)[C@H](Cc2c[nH]c3ccccc23)NC(=O)C2(CCN(C(=O)c3ccc(Cl)cc3)CC2)NC(=O)c2cccc(c2)CN1 [X B5 D6 W Acid 25] | 0.12 | 0.15 | – | – | –
O=C1CCSSCCNC(=O)C(Cc2c[nH]c3ccccc23)NC(=O)C2CN(C(=O)c3ccc(Cl)cc3)CCN2C(=O)c2cccc(c2)CN1 (stereo not drawn) [X B5 D7 W Acid 25] | 0.09 | 0.15 | – | – | –
O=C1CCSSCCNC(=O)C(Cc2c[nH]c3ccccc23)NC(=O)C2CN(C(=O)C=Cc3ccccc3)CCN2C(=O)c2cccc(c2)CN1 (stereo not drawn) [X B5 D7 W Acid 91] | – | – | -0.10 | -0.06 | –
O=C1CCSSCCNC(=O)[C@H](CNC(=O)c2ccc(Cl)s2)NC(=O)[C@H](Cc2ccccc2)NC(=O)c2cccc(c2)CN1 [X B5 F D3 Acid 14] | – | – | – | – | fraction fluorescent probe displaced, Screen (Acid 14): 0.053; fraction fluorescent probe displaced, Replicate (Acid 14): 0.0211
O=C1CCSSCCNC(=O)[C@H](CNC(=O)c2ccc(Cl)cc2)NC(=O)[C@H](Cc2ccccc2)NC(=O)c2cccc(c2)CN1 [X B5 F D3 Acid 25] | 0.09 | 0.0465 | – | – | –
O=C(/C=C/c1ccccc1)NC[C@@H]1NC(=O)[C@H](Cc2ccccc2)NC(=O)c2cccc(c2)CNC(=O)CCSSCCNC1=O [X B5 F D3 Acid 91] | – | – | -0.05 | -0.00827 | –
O=C1CCSSCCNC(=O)[C@@H]2C[C@H](NC(=O)c3ccc(Cl)s3)CN2C(=O)[C@H](Cc2ccccc2)NC(=O)c2cccc(c2)CN1 [X B5 F D5 Acid 14] | – | – | – | – | fraction fluorescent probe displaced, Screen (Acid 14): 0.0241; fraction fluorescent probe displaced, Replicate (Acid 14): -0.00432
O=C1CCSSCCNC(=O)[C@@H]2C[C@H](NC(=O)c3ccc(Cl)cc3)CN2C(=O)[C@H](Cc2ccccc2)NC(=O)c2cccc(c2)CN1 [X B5 F D5 Acid 25] | 0.0244 | 0.10 | – | – | –
O=C1CCSSCCNC(=O)C2(CCN(C(=O)c3ccc(Cl)cc3)CC2)NC(=O)C(Cc2ccccc2)NC(=O)c2cccc(c2)CN1 (stereo not drawn) [X B5 F D6 Acid 25] | 0.0244 | 0.0465 | – | – | –
O=C1CCSSCCNC(=O)C2CN(C(=O)C=Cc3ccccc3)CCN2C(=O)C(Cc2ccccc2)NC(=O)c2cccc(c2)CN1 (stereo not drawn) [X B5 F D7 Acid 91] | – | – | -0.05 | -0.06 | –
O=C1CCSSCCNC(=O)[C@H](CNC(=O)c2ccc(Cl)cc2)NC(=O)[C@H](Cc2c[nH]c3ccccc23)NC(=O)c2cccc(c2)CN1 [X B5 W D3 Acid 25] | 0.15 | 0.12 | – | – | –
O=C(/C=C/c1ccccc1)NC[C@@H]1NC(=O)[C@H](Cc2c[nH]c3ccccc23)NC(=O)c2cccc(c2)CNC(=O)CCSSCCNC1=O [X B5 W D3 Acid 91] | – | – | 0.16 | 0.12 | –
O=C(C=Cc1ccccc1)NC1CC2C(=O)NCCSSCCC(=O)NCc3cccc(c3)C(=O)NC(Cc3c[nH]c4ccccc34)C(=O)N2C1 (stereo not drawn) [X B5 W D5 Acid 91] | – | – | 0.00268 | 0.12 | –
O=C1CCSSCCNC(=O)C2(CCN(C(=O)c3ccc(Cl)s3)CC2)NC(=O)C(Cc2c[nH]c3ccccc23)NC(=O)c2cccc(c2)CN1 (stereo not drawn) [X B5 W D6 Acid 14] | – | – | – | – | fraction fluorescent probe displaced, Screen (Acid 14): 0.20; fraction fluorescent probe displaced, Replicate (Acid 14): 0.33
O=C1CCSSCCNC(=O)C2(CCN(C(=O)c3ccc(Cl)cc3)CC2)NC(=O)[C@H](Cc2c[nH]c3ccccc23)NC(=O)c2cccc(c2)CN1 [X B5 W D6 Acid 25] | 0.09 | 0.28 | – | – | –
O=C1CCSSCCNC(=O)C2(CCN(C(=O)/C=C/c3ccccc3)CC2)NC(=O)[C@H](Cc2c[nH]c3ccccc23)NC(=O)c2cccc(c2)CN1 [X B5 W D6 Acid 91] | – | – | 0.16 | 0.17 | –
O=C1CCSSCCNC(=O)C2CN(C(=O)c3ccc(Cl)cc3)CCN2C(=O)C(Cc2c[nH]c3ccccc23)NC(=O)c2cccc(c2)CN1 (stereo not drawn) [X B5 W D7 Acid 25] | 0.12 | 0.07 | – | – | –
